Laboratory results taken from ChEMBL document CHEMBL5150003, “Why All the Fury over Furin?” (J Med Chem, 2022).
Numbered stars: 1 amine (or outer) side, 2 acyl side, 3 side chain; on linkers, the order of the positions; unused ones are H or OH. Bridge positions count the residues as written; N and C are the ends. Square brackets hold non-standard residues; d marks the D form. Peptide text beside a SMILES is read from it. * marks the point of attachment. NH(4-amidinobenzyl) = N=C(N)c1ccc(CN*)cc1; 2Nal = N[C@@H](Cc1ccc2ccccc2c1)C(=O)O; Glutaryl = O=C(CCCC(=O)[*:2])[*:1]; Suc = O=C(CCC(=O)[*:2])[*:1]

Tests used:
Furin [1] = target: T1, Furin (Homo sapiens, UniProt P09958); assay: Inhibition of furin (unknown origin)
T1 sequence (P09958 whole entry): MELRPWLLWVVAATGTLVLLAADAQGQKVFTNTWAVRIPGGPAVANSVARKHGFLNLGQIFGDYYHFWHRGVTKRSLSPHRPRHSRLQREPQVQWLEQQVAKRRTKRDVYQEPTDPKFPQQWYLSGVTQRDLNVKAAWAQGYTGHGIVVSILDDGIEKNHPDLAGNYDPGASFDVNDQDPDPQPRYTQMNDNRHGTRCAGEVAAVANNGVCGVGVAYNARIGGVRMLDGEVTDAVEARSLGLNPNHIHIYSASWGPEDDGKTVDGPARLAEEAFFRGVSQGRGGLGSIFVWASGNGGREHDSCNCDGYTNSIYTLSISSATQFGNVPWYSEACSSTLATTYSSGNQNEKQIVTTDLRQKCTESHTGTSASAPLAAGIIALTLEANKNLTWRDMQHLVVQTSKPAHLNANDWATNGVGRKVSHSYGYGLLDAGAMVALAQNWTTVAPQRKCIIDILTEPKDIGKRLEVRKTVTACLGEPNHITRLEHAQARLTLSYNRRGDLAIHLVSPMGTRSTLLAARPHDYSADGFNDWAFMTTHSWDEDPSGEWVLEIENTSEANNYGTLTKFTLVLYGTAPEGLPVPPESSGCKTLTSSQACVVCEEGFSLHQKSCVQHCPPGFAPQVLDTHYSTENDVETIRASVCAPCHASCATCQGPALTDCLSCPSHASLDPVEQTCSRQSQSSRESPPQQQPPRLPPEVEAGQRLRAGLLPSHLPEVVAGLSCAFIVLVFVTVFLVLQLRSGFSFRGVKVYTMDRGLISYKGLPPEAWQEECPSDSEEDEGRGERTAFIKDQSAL

Furin [2] = target: T1, Furin; assay: Inhibition of furin in human U2OS cells measured after 24 hrs by fluorescence assay; format: cell-based
Mus musculus [3] = assay: Antifibrotic activity against bleomycin-induced mouse lung fibrosis model assessed as inhibition of TGF-beta secretion in lung at 10 mg/kg, po administered once daily; format: functional
Mus musculus [4] = assay: Antifibrotic activity against bleomycin-induced mouse lung fibrosis model assessed as inhibition of hydroxyproline content in lung at 10 mg/kg, po administered once daily; format: functional
Furin [5] = target: T1, Furin; assay: Inhibition of furin (unknown origin) using Pyr-RTKR-MCA as substrate incubated for 30 mins and measured by FRET assay
Furin [6] = target: T1, Furin; assay: Inhibition of Recombinant vaccinia-expressed furin (unknown origin) using Pyr-RTKR-MCA as substrate and measured by fluorescence based assay
[7] = Cytotoxicity against chinese hamster CHO-DG44 cells assessed as cell viability at 100 uM and measured after 2 hrs by WST-1 method; format: toxicity, cell-based, Cricetulus griseus; conditions: read-out: Activity
[8] = Cytotoxicity against human HT-1080 cells assessed as cell viability at 100 uM and measured after 2 hrs by WST-1 method; format: toxicity, cell-based; conditions: read-out: Activity
[9] = Inhibition of migration of human HT-1080 cells at 100 uM measured by calcein AM/ethidium homodimer (EthD-1) staining method; format: functional
[10] = Protective activity against Pseudomonas aeruginosa exotoxin A-induced cytotoxicity in chinese hamster CHO-DG44 cells measured by WST-1 method; format: functional, Cricetulus griseus; conditions: dose 100 µM
RAW264.7 = assay: Protective activity against Anthrax toxin-induced cytotoxicity in mouse RAW264.7 cells measured by WST-1 method; format: functional; conditions: dose 100 µM

CC(C)(C)[C@@H]1NC(=O)[C@H](CCCNC(N)N)NC(=O)[C@H](CCCNC(=N)N)NC(=O)[C@@H](N)CCCCNC(=O)CCN2CCN(CCC(=O)NCCCC[C@@H](C(=O)NCc3ccc(C(=N)N)cc3)NC1=O)CC2
Ki (Furin [1]): 0.491 nM

CN1CCN(c2cnc(Oc3cc(CN4CCC(CC(=O)O)CC4)cc(-c4cc(Cl)cc(Cl)c4)n3)cn2)CC1
pXC50 (Furin [2]): 7.3
inhibition in vivo at 10 mg/kg (Mus musculus [3]): 22%
inhibition in vivo at 10 mg/kg (Mus musculus [4]): 4%

N=C(N)N[C@H]1C[C@@H](NC(=N)N)[C@H](Oc2ccc(C(=N)N)cn2)C[C@@H]1Oc1ccc(C(=N)N)cn1
Ki (Furin [5]): 20 nM

N=C(N)Nc1ccc(OCCCOc2ccc(NC(=N)N)cc2)cc1
Ki (Furin [6]): 8300 nM
viability at 2 h, 100 µM [7]: 60%
viability at 2 h, 100 µM [8]: 60%
inhibition at 100 µM [9]: < 40%

N=C(N)NCCC[C@@H]1NC(=O)CCCC(=O)NCCCC[C@@H](C(=O)N[C@@H](CCCNC(=N)N)C(=O)NCc2ccc(C(=N)N)cc2)NC(=O)[C@H](CCCNC(=N)N)NC(=O)[C@H](CCCNC(=N)N)NC1=O (RRRKR-{NH(4-amidinobenzyl)}; linker N-4 via Glutaryl)
Ki (Furin [1]): 0.68 nM

N=C(N)N[C@H]1C[C@@H](NC(=N)N)[C@H](Oc2ccc(C(=N)N)cc2Cl)C[C@@H]1Oc1ccc(C(=N)N)cc1Cl
Ki (Furin [5]): 5 nM

N=C(N)Nc1ccc(OC2CCCC(Oc3ccc(NC(=N)N)cc3NC(=N)N)C2)c(NC(=N)N)c1 (centres undefined)
Ki (Furin [6]): 1200 nM
viability at 2 h, 100 µM [7]: > 90%
viability at 2 h, 100 µM [8]: > 90%
inhibition at 100 µM [9]: < 40%
Activity [10]: 30%
Activity (RAW264.7): 70%

N=C(N)Nc1ccc(OCCCOc2ccc(NC(=N)N)cc2NC(=N)N)c(NC(=N)N)c1
Ki (Furin [6]): 2700 nM
viability at 2 h, 100 µM [7]: > 90%
viability at 2 h, 100 µM [8]: > 90%
inhibition at 100 µM [9]: < 40%
Activity [10]: <30%
Activity (RAW264.7): 50%

N=C(N)c1ccc(OC2CCCC(Oc3ccc(C(=N)N)cc3)C2)cc1 (centres undefined)
Ki (Furin [5]): 1000 nM

N=C(N)Nc1ccc(O[C@H]2C[C@@H](Oc3ccc(NC(=N)N)cc3)[C@H](NC(=N)N)C[C@@H]2NC(=N)N)cc1
viability at 2 h, 100 µM [7]: > 90%
viability at 2 h, 100 µM [8]: > 90%
Activity [10]: >20%
Activity (RAW264.7): >90%

N=C(N)Nc1ccc(OC2CCCC(Oc3ccc(NC(=N)N)cc3)C2)cc1 (centres undefined)
Ki (Furin [6]): 5500 nM
viability at 2 h, 100 µM [7]: 70%
viability at 2 h, 100 µM [8]: 70%
inhibition at 100 µM [9]: 40%
Activity (RAW264.7): 30%

N=C(N)NCCC[C@@H]1NC(=O)[C@H](Cc2ccc3ccccc3c2)NC(=O)[C@H](Cc2ccccc2)NC(=O)CCC(=O)NCCCC[C@@H](C(=O)N[C@@H](CCCCN)C(=O)NCc2ccc(C(=N)N)cc2)NC(=O)[C@H](CCCNC(=N)N)NC(=O)[C@H](CCCNC(=N)N)NC1=O (F[2Nal]RRRKK-{NH(4-amidinobenzyl)}; linker N-6 via Suc)
Ki (Furin [1]): 0.618 nM

N=C(N)Nc1ccc(O[C@H]2C[C@@H](Oc3ccc(NC(=N)N)cn3)[C@H](NC(=N)N)C[C@@H]2NC(=N)N)nc1
viability at 2 h, 100 µM [7]: > 90%
viability at 2 h, 100 µM [8]: > 90%
Activity [10]: 100%
Activity (RAW264.7): 80%

N=C(N)Nc1ccc(Oc2cccc(Oc3ccc(NC(=N)N)cc3NC(=N)N)c2)c(NC(=N)N)c1
Ki (Furin [6]): 400 nM
viability at 2 h, 100 µM [7]: > 60%
viability at 2 h, 100 µM [8]: > 60%
inhibition at 100 µM [9]: < 20%
Activity [10]: <40%
Activity (RAW264.7): 100%

C[C@@H](O)CN1CCN(c2ncc(Oc3cc(CN4CCC(CC(=O)O)CC4)cc(-c4cc(Cl)cc(Cl)c4)n3)cn2)CC1
pXC50 (Furin [2]): 7.7
inhibition in vivo at 10 mg/kg (Mus musculus [3]): 23%
inhibition in vivo at 10 mg/kg (Mus musculus [4]): 16%

N=C(N)N[C@H]1C[C@@H](NC(=N)N)[C@H](Oc2ccc(C(=N)N)cc2C(=N)N)C[C@@H]1Oc1ccc(C(=N)N)cc1C(=N)N
Ki (Furin [5]): 100 nM

N=C(N)N[C@H]1C[C@@H](NC(=N)N)[C@H](Oc2ccc(C(=N)N)cc2)C[C@@H]1Oc1ccc(C(=N)N)cc1
Ki (Furin [5]): 2 nM

N=C(N)Nc1ccc(O[C@H]2C[C@@H](Oc3ccc(NC(=N)N)c4ccccc34)[C@H](NC(=N)N)C[C@@H]2NC(=N)N)c2ccccc12
viability at 2 h, 100 µM [7]: > 90%
viability at 2 h, 100 µM [8]: > 90%
inhibition at 100 µM [9]: 40%
Activity [10]: 30%
Activity (RAW264.7): 80%

N=C(N)c1ccc(Oc2cccc(Oc3ccc(C(=N)N)cc3)c2)cc1
Ki (Furin [5]): 100 nM

CC(C)(C)[C@H](NC(=O)[C@H](CCCNC(=N)N)NC(=O)Cc1ccc(CNC(=N)N)cc1)C(=O)N[C@@H](CCCNC(=N)N)C(=O)NCc1ccccc1
IC50 (Furin [1]): 0.56 nM

CC(=O)NCC1CCN(Cc2cc(Oc3cnc(N4CCN(CCC(C)C(=O)O)CC4)nc3)nc(-c3cc(Cl)cc(Cl)c3)c2)CC1 (centres undefined)
pXC50 (Furin [2]): 8.3
inhibition in vivo at 10 mg/kg (Mus musculus [3]): 75%
inhibition in vivo at 10 mg/kg (Mus musculus [4]): 62%
